Where “and” joins values, the source holds several entries; their conditions need not be identical. Equal values may be shown once.
Experiment: molar heat capacity at saturation pressure
Conditions: Crystal 3, Small (less than 1 g) adiabatic calorimetry

ON=C1CCCCC1 [cyclohexanone oxime]
Conditions | molar heat capacity
4.9 K | 0.339 J/K/mol
5.136 K | 0.3967 J/K/mol
5.378 K | 0.4649 J/K/mol
5.624 K | 0.5419 J/K/mol
5.878 K | 0.6278 J/K/mol
6.165 K | 0.7333 J/K/mol
6.485 K | 0.8621 J/K/mol
6.812 K | 1.006 J/K/mol
7.147 K | 1.167 J/K/mol
7.488 K | 1.338 J/K/mol
7.836 K | 1.53 J/K/mol
8.187 K | 1.735 J/K/mol
8.542 K | 1.956 J/K/mol
8.902 K | 2.19 J/K/mol
9.268 K | 2.438 J/K/mol
9.636 K | 2.708 J/K/mol
10 K | 2.981 J/K/mol
10.48 K | 3.361 J/K/mol
11.06 K | 3.83 J/K/mol
11.64 K | 4.325 J/K/mol
12.23 K | 4.854 J/K/mol
12.83 K | 5.408 J/K/mol
13.43 K | 5.992 J/K/mol
14.03 K | 6.572 J/K/mol
14.64 K | 7.153 J/K/mol
15.26 K | 7.796 J/K/mol
15.98 K | 8.601 J/K/mol
16.81 K | 9.497 J/K/mol
17.65 K | 10.37 J/K/mol
18.49 K | 11.28 J/K/mol
19.34 K | 12.18 J/K/mol
20.19 K | 13.08 J/K/mol
21.32 K | 14.35 J/K/mol
22.74 K | 15.89 J/K/mol
24.16 K | 17.46 J/K/mol
25.59 K | 19 J/K/mol
27.02 K | 20.5 J/K/mol
28.49 K | 22 J/K/mol
30.12 K | 23.63 J/K/mol
31.73 K | 25.22 J/K/mol
33.5 K | 26.88 J/K/mol
35.28 K | 28.48 J/K/mol
37.06 K | 30.01 J/K/mol
38.84 K | 31.47 J/K/mol
40.63 K | 32.89 J/K/mol
42.51 K | 34.38 J/K/mol
44.49 K | 35.9 J/K/mol
46.48 K | 37.34 J/K/mol
48.47 K | 38.76 J/K/mol
50.46 K | 40.11 J/K/mol
52.45 K | 41.42 J/K/mol
54.45 K | 42.64 J/K/mol
56.45 K | 43.84 J/K/mol
58.46 K | 45.02 J/K/mol
60.47 K | 46.16 J/K/mol
62.48 K | 47.28 J/K/mol
64.5 K | 48.37 J/K/mol
66.51 K | 49.44 J/K/mol
68.52 K | 50.51 J/K/mol
70.54 K | 51.55 J/K/mol
72.56 K | 52.59 J/K/mol
74.59 K | 53.59 J/K/mol
76.61 K | 54.6 J/K/mol
78.65 K | 55.6 J/K/mol
79.94 K | 56.26 J/K/mol
80.68 K | 56.58 J/K/mol
81.67 K | 57.04 J/K/mol
82.2 K | 57.24 J/K/mol
82.71 K | 57.54 J/K/mol
83.39 K | 57.84 J/K/mol
84.24 K | 58.2 J/K/mol
84.75 K | 58.47 J/K/mol
85.1 K | 58.59 J/K/mol
86.15 K | 59.05 J/K/mol
86.83 K | 59.4 J/K/mol
88.07 K | 59.96 J/K/mol
88.55 K | 60.2 J/K/mol
90 K | 60.85 J/K/mol
90.28 K | 61.01 J/K/mol
91.95 K | 61.75 J/K/mol
92.01 K | 61.8 J/K/mol
93.75 K | 62.62 J/K/mol
93.89 K | 62.67 J/K/mol
95.49 K | 63.42 J/K/mol
95.85 K | 63.56 J/K/mol
97.23 K | 64.21 J/K/mol
97.81 K | 64.45 J/K/mol
98.97 K | 65.03 J/K/mol
99.77 K | 65.37 J/K/mol
100.72 K | 65.83 J/K/mol
101.74 K | 66.25 J/K/mol
102.52 K | 66.6 J/K/mol
103.72 K | 67.14 J/K/mol
104.37 K | 67.44 J/K/mol
105.7 K | 68.04 J/K/mol
106.23 K | 68.29 J/K/mol
107.69 K | 68.92 J/K/mol
108.09 K | 69.08 J/K/mol
109.68 K | 69.81 J/K/mol
109.95 K | 69.92 J/K/mol
111.68 K | 70.69 J/K/mol
111.81 K | 70.76 J/K/mol
113.68 K | 71.57 J/K/mol and 71.56 J/K/mol
115.55 K | 72.37 J/K/mol
115.69 K | 72.45 J/K/mol
117.41 K | 73.2 J/K/mol
117.7 K | 73.35 J/K/mol
119.29 K | 74.03 J/K/mol
119.71 K | 74.22 J/K/mol
121.16 K | 74.85 J/K/mol
121.72 K | 75.08 J/K/mol
123.03 K | 75.63 J/K/mol
123.73 K | 75.98 J/K/mol
124.91 K | 76.46 J/K/mol
125.75 K | 76.86 J/K/mol
126.79 K | 77.29 J/K/mol
127.76 K | 77.72 J/K/mol
128.67 K | 78.11 J/K/mol
129.79 K | 78.6 J/K/mol
130.55 K | 78.91 J/K/mol
131.81 K | 79.49 J/K/mol
132.43 K | 79.75 J/K/mol
133.83 K | 80.38 J/K/mol
134.31 K | 80.58 J/K/mol
135.86 K | 81.28 J/K/mol
136.2 K | 81.42 J/K/mol
137.88 K | 82.16 J/K/mol
138.09 K | 82.25 J/K/mol
139.9 K | 83.05 J/K/mol
139.98 K | 83.08 J/K/mol
141.87 K | 83.93 J/K/mol
141.92 K | 83.95 J/K/mol
143.76 K | 84.77 J/K/mol
143.95 K | 84.85 J/K/mol
145.65 K | 85.62 J/K/mol
145.97 K | 85.73 J/K/mol
147.54 K | 86.49 J/K/mol
148 K | 86.67 J/K/mol
149.44 K | 87.35 J/K/mol
150.03 K | 87.59 J/K/mol
151.34 K | 88.17 J/K/mol
152.05 K | 88.52 J/K/mol
153.24 K | 89.05 J/K/mol
154.08 K | 89.42 J/K/mol
155.13 K | 89.89 J/K/mol
156.1 K | 90.34 J/K/mol
157.03 K | 90.77 J/K/mol
158.12 K | 91.27 J/K/mol
158.93 K | 91.65 J/K/mol
160.13 K | 92.24 J/K/mol
160.83 K | 92.53 J/K/mol
162.15 K | 93.18 J/K/mol
162.73 K | 93.45 J/K/mol
164.16 K | 94.14 J/K/mol
164.63 K | 94.35 J/K/mol
166.17 K | 95.08 J/K/mol
166.54 K | 95.25 J/K/mol
168.18 K | 96.07 J/K/mol
168.44 K | 96.2 J/K/mol
170.18 K | 97.05 J/K/mol
170.35 K | 97.13 J/K/mol
172.19 K | 98.05 J/K/mol
172.26 K | 98.07 J/K/mol
174.17 K | 99.06 J/K/mol
174.19 K | 99.05 J/K/mol
176.08 K | 100.02 J/K/mol
176.19 K | 100.08 J/K/mol
177.99 K | 101.03 J/K/mol
178.2 K | 101.13 J/K/mol
179.9 K | 102.04 J/K/mol
180.2 K | 102.17 J/K/mol
181.81 K | 103.07 J/K/mol
182.19 K | 103.23 J/K/mol
183.72 K | 104.11 J/K/mol
184.18 K | 104.31 J/K/mol
185.64 K | 105.14 J/K/mol
186.16 K | 105.44 J/K/mol
187.55 K | 106.25 J/K/mol
188.14 K | 106.57 J/K/mol
189.46 K | 107.37 J/K/mol
190.12 K | 107.71 J/K/mol
191.37 K | 108.48 J/K/mol
192.1 K | 108.92 J/K/mol
193.29 K | 109.62 J/K/mol
194.08 K | 110.15 J/K/mol
195.2 K | 110.84 J/K/mol
196.05 K | 111.36 J/K/mol
197.13 K | 112.05 J/K/mol
198.02 K | 112.6 J/K/mol
199.05 K | 113.28 J/K/mol
199.97 K | 113.87 J/K/mol
200.97 K | 114.62 J/K/mol
202 K | 115.31 J/K/mol
202.89 K | 116 J/K/mol
203.92 K | 116.79 J/K/mol
204.81 K | 117.51 J/K/mol
205.74 K | 118.31 J/K/mol
206.72 K | 119.13 J/K/mol
207.56 K | 119.91 J/K/mol
208.63 K | 120.93 J/K/mol
209.36 K | 121.66 J/K/mol
210.55 K | 122.71 J/K/mol
211.17 K | 123.38 J/K/mol
212.46 K | 124.68 J/K/mol
212.97 K | 125.27 J/K/mol
214.38 K | 126.63 J/K/mol
214.76 K | 127.11 J/K/mol
216.3 K | 128.63 J/K/mol
216.54 K | 128.94 J/K/mol
217 K | 129.41 J/K/mol
217.73 K | 130.26 J/K/mol
218.21 K | 130.69 J/K/mol
218.32 K | 130.87 J/K/mol
218.98 K | 131.5 J/K/mol
219.5 K | 132.12 J/K/mol
220.09 K | 132.7 J/K/mol
220.14 K | 132.72 J/K/mol
220.87 K | 133.52 J/K/mol
221.26 K | 133.99 J/K/mol
222.06 K | 134.69 J/K/mol
222.75 K | 135.43 J/K/mol
223.02 K | 135.78 J/K/mol

From the NIST ThermoML archive (doi:10.1021/je700546r)
